# Reference: patent publication US20080318842A1, “Cyclic Isodityrosine Derivatives” (priority 2004, published 2008)
# Where two headings read alike, the source gives them in different places.
# What was measured:
# [1] = system: mouse peritoneal macrophages; assay: Inhibition of production of cholesteryl ester from [14C] oleic acid in mouse peritoneal macrophages; format: cell-based; conditions: for IC50: Peritoneal macrophage
# Description: Production of a cholesteryl ester in mouse peritoneal macrophages was performed by partly modifying the method by Nishikawa et al (Nishikawa et al., the Journal of Biological Chemistry (JBC) 265, pp. 5226-5231, 1990). Mouse peritoneal macrophages were prepared from an ICR female mouse as follows. First, cells were isolated from the mouse peritoneal cavity using a Hank's balanced salt solution (HBSS) and then suspended in a GIT medium so as to have a concentration of 2×10^6 cells/mL. Subsequently, 0.25 mL of the suspension was placed in each of 48 wells on a plastic culture plate, and the plate was cultured in the presence of 5% CO2 at 37° C. for two hours. In order to remove non-adhesive cells, each well was then washed with 0.25 mL of an HBSS three times. Finally, 0.25 mL of a culture medium A (Dulbecco's modified Eagle's medium (DMEM) containing 100 u/mL of penicillin, 100 μg/mL of streptomycin, and an 8% lipoprotein-free serum) was added thereto.
# The effect of inhibiting the synthesis of a cholesteryl ester of the agents (eurypamides A, A′, B, and D, and Compounds (1) to (12)) in the macrophages thus prepared was evaluated as follows: The amount of [^14C] cholesteryl ester and [^14C] triacylglycerol synthesized from [^14C] oleic acid was measured as follows, and a concentration of the agent at which the synthesis was inhibited by 50% (IC50: μg/mL) was determined.
# First, the macrophages (5×10^5 cells/0.25 mL/well) were cultured in a plastic culture plate with 48 wells. Subsequently, 5 μL of [^14C] oleic acid (1 nmol, 0.05 μCi, which was dissolved in a phosphate buffered saline (PBS) containing 10% ethanol), liposome (having a composition of phosphatidylcholine/phosphatidylserine/diacetylphosphate/cholesterol=10/10/2/5 (nmol) in 10 μL of 0.3 M glucose), and 2.5 μL of each agent dissolved in methanol were added to each well. The plate was cultured for 14 hours, and the culture medium was then removed. Each of the wells was washed with a PBS three times. Subsequently, 0.25 mL of a PBS containing 0.1% (w/v) sodium dodecyl sulfate (SDS) was added to each well to lyse the cells. Lipid in the cells was extracted by the method by Bligh & Dyer (Bligh & Dyer, Can. J. Biochem. Physiol., 37, pp. 911-917, 1959). The volume of the organic solvent was reduced by centrifugation in vacuum. The solution was spotted on a thin-layer chromatography (TLC) plate (silica gel […], thickness: 0.5 mm, manufactured by Merck Ltd.) and developed with hexane/diethyl ether/acetic acid (70/30/1, v/v). The amounts of separated [^14C] cholesteryl oleate and [^14C] triacylglycerol were analyzed with a bioimage analyzer (BAS2000 manufactured by FUJIFILM Corporation).
# MRSA K24 strain = assay: Imipenem activity-potentiating effect, paper-disc method on plate containing imipenem; format: cell-based, methicillin-resistant Staphylococcus aureus; conditions: for MRSA (mm) [10 μg/6 mm disc]: diameter of inhibition circle, 10 μg agent per 6 mm paper disc, plate with imipenem 10 μg/mL, 37° C., 20 hours
# Description: In this example, clinically isolated MRSA K24 strain was used as an assay strain. A plate for control was prepared by adding 1.5% of agar (manufactured by Shimizu Shokuhin Kaisha, Ltd.) to Mueller-Hinton Broth (manufactured by DIFCO Laboratories), and a plate for assay was prepared by adding imipenem (trade name: Tienam for intramuscular injection, titer: 0.5, manufactured by Banyu Pharmaceutical Co., Ltd.) to the above composition so that the final concentration of imipenem was 10 μg/mL. These plates were used as assay plates. An inoculum solution was prepared by culturing the assay strain in Mueller-Hinton Broth for one night, and diluting the culture solution with the same culture medium so as to have a concentration of 0.5 McFarland units (about 10^8 cfu/mL). This inoculum solution was applied on each of the plates with a sterile cotton swab in accordance with the National Committee For Clinical Laboratory Standards (NCCLS) method. The antibacterial activities against the assay strain in the plates were evaluated by a paper-disc method as follows. Paper discs with a diameter of 6 mm impregnated with 10 μg of assay medical agents (eurypamides A, A′, B, and D, and Compounds (1) to (12)) were placed on each of the plates, and the plates were cultured at 37° C. for 20 hours.
# On the plate for control, the assay strain was grown under the paper discs. […] In addition, the assay strain could be grown on the plate for assay. […] If the compound impregnated in the paper disc acts in combination with imipenem to exert anti-MRSA activity, growth of the assay strain would not be observed under and around the paper disc. Therefore, in this example, the imipenem activity-potentiating effect for MRSA is represented by a diameter of an inhibition circle (the diameter passing through the center of the paper disc) on the assay plates.
# [2] = Mus musculus, 14 h, read-out: Macrophage [IC50 μg/mL]
# [3] = Mus musculus, read-out: IC50 of inhibiting the production of cholesteryl oleate
# [4] = Mus musculus, synthesis of [14C] cholesteryl ester from [14C] oleic acid, 14 hours culture, read-out: Macrophage [IC50 μg/mL]
# [5] = mouse peritoneal macrophages, read-out: IC50 of inhibiting the production of cholesteryl oleate
# [6] = synthesis of [14C] cholesteryl ester from [14C] oleic acid, 14 hours culture
Molecule,"IC50 [1, 2] [µg/mL]","IC50 [1, 3] [µg/mL]","effect of inhibiting the synthesis of a cholesteryl ester in macrophages, in words [1]",MRSA (mm) [10 μg/6 mm disc] (MRSA K24 strain) [mm],"imipenem activity-potentiating effect (anti-MRSA activity in combination with imipenem), in words (MRSA K24 strain)","IC50 [1, 4] [µg/mL]","IC50 [1, 5] [µg/mL]","Macrophage [IC50 μg/mL] [1, 6]"
"COC(=O)C1Cc2cc(Br)c(c(Br)c2)Oc2cc(cc(I)c2O)C[C@H](NC(=O)OCc2ccccc2)C(=O)N[C@@H]([C@H](C)OCc2ccccc2)C(=O)N1 (some centres unmarked) [Compound (1), N-Cbz-Thr(O-benzyl)-dibromo-iodo-eurypamide B methyl ester]",3,3,have an effect of inhibiting the synthesis of a cholesteryl ester in macrophages,8,potentiate,–,–,–
"COC(=O)C1Cc2cc(Br)c(c(Br)c2)Oc2cc(cc(I)c2O)C[C@H](NC(=O)OC(C)(C)C)C(=O)N[C@@H]([C@H](C)OCc2ccccc2)C(=O)N1 (some centres unmarked) [Compound (2), N-Boc-Thr(O-benzyl)-dibromo-iodo-eurypamide B methyl ester]",3,3,have an effect of inhibiting the synthesis of a cholesteryl ester in macrophages,8,potentiate,–,–,–
"C[C@@H](O)[C@@H]1NC(=O)[C@@H](NC(=O)OC(C)(C)C)Cc2cc(I)c(O)c(c2)Oc2c(Br)cc(cc2Br)CC(C(=O)O)NC1=O (some centres unmarked) [Compound (3), N-Boc-dibromo-iodo-eurypamide B]",> 10,–,–,10,potentiate,–,–,–
"COC(=O)C1Cc2cc(Br)c(c(Br)c2)Oc2cc(cc(I)c2O)C[C@H](N)C(=O)N[C@@H]([C@@H](C)O)C(=O)N1 (some centres unmarked) [Compound (4), dibromo-iodo-eurypamide B methyl ester]",–,–,–,8,potentiate,> 10,–,–
"COC(=O)[C@@H]1Cc2cc(Br)c(c(Br)c2)Oc2cc(cc(I)c2O)C[C@H](N)C(=O)N[C@@H](C(C)OCc2ccccc2)C(=O)N1 (some centres unmarked) [Compound (5), Thr(O-benzyl)-dibromo-iodo-eurypamide B methyl ester]",–,–,–,8,potentiate,> 10,–,–
COC(=O)[C@@H]1Cc2cc(Br)c(c(Br)c2)Oc2cc(cc(I)c2O)C[C@H](NC(=O)OCC2c3ccccc3-c3ccccc32)C(=O)N[C@@H](C(C)OCc2ccccc2)C(=O)N1 (some centres unmarked) [Compound (6)],–,–,have an effect of inhibiting the synthesis of a cholesteryl ester in macrophages,–,do not potentiate,0.32,0.32,–
COC(=O)[C@@H]1Cc2cc(Br)c(c(Br)c2)Oc2cc(cc(I)c2O)C[C@H](NC(=O)CCCCCNC(=O)OC(C)(C)C)C(=O)N[C@@H](C(C)OCc2ccccc2)C(=O)N1 (some centres unmarked) [Compound (7)],–,–,have an effect of inhibiting the synthesis of a cholesteryl ester in macrophages,–,do not potentiate,4.2,4.2,–
COC(=O)[C@@H]1Cc2cc(Br)c(c(Br)c2)Oc2cc(cc(I)c2O)C[C@H](NC(=O)C(Cc2ccccc2)NC(=O)OC(C)(C)C)C(=O)N[C@@H](C(C)OCc2ccccc2)C(=O)N1 (some centres unmarked) [Compound (8)],–,–,have an effect of inhibiting the synthesis of a cholesteryl ester in macrophages,–,do not potentiate,5,5,–
CC(OCc1ccccc1)[C@@H]1NC(=O)[C@@H](NC(=O)OC(C)(C)C)Cc2cc(I)c(O)c(c2)Oc2c(Br)cc(cc2Br)C[C@@H](C(=O)O)NC1=O (some centres unmarked) [Compound (9)],> 10,–,–,17,potentiate,–,–,–
CC(OCc1ccccc1)[C@@H]1NC(=O)[C@@H](N)Cc2cc(I)c(O)c(c2)Oc2c(Br)cc(cc2Br)C[C@@H](C(=O)O)NC1=O (some centres unmarked) [Compound (11)],–,–,–,12,potentiate,> 10,–,–
"COC(=O)[C@@H]1Cc2cc(Br)c(c(Br)c2)Oc2cc(cc(I)c2O)C[C@H](NC(=O)OC(C)(C)C)C(=O)N[C@@H](C(C)O)C(=O)N1 (some centres unmarked) [Compound (12), N-Boc-dibromo-iodo-eurypamide B methyl ester]",> 10,–,–,9,potentiate,–,–,–
"C[C@@H](O)[C@@H]1NC(=O)[C@@H](N)Cc2ccc(O)c(c2)Oc2ccc(cc2)C[C@@H](C(=O)O)NC1=O [Eurypamide B, reference compound]",–,–,–,–,–,–,–,— (The symbol “-” in the column of macrophage in Table 1 means that the compound did not exhibit inhibition in its amount of 10 μg/mL)
Eurypamide A [reference compound],–,–,–,–,–,–,–,— (The symbol “-” in the column of macrophage in Table 1 means that the compound did not exhibit inhibition in its amount of 10 μg/mL)
Eurypamide A′ [reference compound],–,–,–,–,–,–,–,— (The symbol “-” in the column of macrophage in Table 1 means that the compound did not exhibit inhibition in its amount of 10 μg/mL)
Eurypamide D [reference compound],–,–,–,–,–,–,–,— (The symbol “-” in the column of macrophage in Table 1 means that the compound did not exhibit inhibition in its amount of 10 μg/mL)
